Assay results from PMC11623990, “Deferasirox and Ciprofloxacin: Potential Ternary Complex Formation With Ferric Iron, Pharmacodynamic, and Pharmacokinetic Interactions” (The Scientific World Journal, 2024).
In brackets after ≈: the same amount, converted by molar mass.

Columns and labels:
[1] = Saturation solubility, shake-flask with HPLC; type: physicochemical; conditions: (±SD) in brackets, n = 3
Protocol: The molar ratio of association between iron and either of the drugs was determined by completely dissolving 2.7 mg of the metal complex products in 10 mL of a mixture of butanol, DMSO, and DMF (3:5:2). Solutions were then diluted twice in DMSO and five times in mobile phase before being injected into HPLC. The developed HPLC method was validated for this purpose and for the determination of solubility and partition coefficients (PCs). The optimum conditions developed comprised a phenyl column (4.6 mm ID; 150 mm·L; Thermo Scientific Hypersil) with a mobile phase consisting of 34% acetonitrile in a 50 mM phosphate buffer. The mobile phase mixture contained 0.032% citric acid, 0.02% EDTA, 0.032% hydroxylamine HCl, and 0.07% trimethylamine, with the overall pH adjusted to 3.7. The mobile phase was delivered isocratically at a flow rate of 1.2 mL/min, and chromatograms monitored at 290 nm.
(§1) Excess solid of each compound to be tested was added to 6 mL of either phosphate buffer (pH 6.8), acetate buffer (pH 4.5), or 0.1 M HCl and left on a shaker water bath (37°C) for 24 h. One mL was centrifuged for 10 min, and 100 μL of the supernatant was properly diluted with the mobile phase (1:4) before being injected onto HPLC. For determination of octanol/H2O PC, 0.6 mL of the supernatant solution was transferred to a new tube containing 2 mL of octanol. Tubes containing the two layers of octanol and aqueous phase were kept on shaker water bath (37°C) for 24 h. Aliquots of aqueous layer were properly diluted with the mobile phase before being injected onto HPLC. The concentration of the drug in octanol layer was calculated by difference.

[2] = Apparent octanol/H2O partition coefficient; type: physicochemical; conditions: (±SD) in brackets, n = 3
Protocol: as §1

[3] = Level of DFX in plasma of iron-overloaded rats (HPLC); type: in vivo; conditions: male, Wistar, rat, (SD), N = 8
Protocol: (§2) Ethical approval of the study protocol was obtained from the Institutional Review Board at the University of Jordan (Approval No. 47–2022) on 17th May 2022 (document No. 19/2022/289). Throughout the study, all animals were housed, fed, and treated in accordance with The University of Jordan ethical guidelines for animal protection. The animal house of the University of Jordan, which is equipped with proper ventilation and temperature control (25 ± 4°C) systems, was utilized for the study. Each animal was placed in a separate standard cage. Sixteen male Wistar rats (6 weeks old, average weight 220 ± 10 g) were subjected to an iron-enriched diet containing 2.5% carbonyl iron according to Ackerman et al. for 6 weeks. Another group of eight rats (control group) was subjected to an ordinary pellet diet for the same period. The 16 animals with iron fortified diets were then separated into two groups of eight: the DFX group which received DFX alone and the DFX-CP group which received DFX plus CP, for 6 days. Drugs were given orally through proper mixing with food so that on average, each animal would ingest 30 mg/kg DFX daily incorporated within 15 gm of dried food. For the DFX-CP group, the 15 g dried food contained CP equivalent to 30 mg/kg of animal weight. Blood samples were collected from animals using the orbital venous plexus bleeding method with the aid of ether anesthesia in special EDTA tubes on days 1, 3, and 6 after initiation of the drug treatment. Blood samples were centrifuged, and plasma was collected in Eppendorf tubes and kept at −80°C until time of analysis for DFX. On the sixth day of the treatment, animals were sacrificed by cervical dislocation with the aid of mild anesthesia. […]
DFX was determined in plasma and GIT content using a slightly modified HPLC method from that employed in the solubility studies. […]
The method was properly validated for selectivity, precision, accuracy, and linearity. […] However, CP could not be determined by this method as it was coeluted early with other components of the plasma. […]

[4] = test system: iron-overloaded rat model; assay: Level of iron in blood and other tissues determined by AAS; type: in vivo, Wistar rats; conditions: (SD), n = 8
Protocol: Ethical approval of the study protocol was obtained from the Institutional Review Board at the University of Jordan (Approval No. 47–2022) on 17th May 2022 (document No. 19/2022/289). Throughout the study, all animals were housed, fed, and treated in accordance with The University of Jordan ethical guidelines for animal protection. The animal house of the University of Jordan, which is equipped with proper ventilation and temperature control (25 ± 4°C) systems, was utilized for the study. Each animal was placed in a separate standard cage. Sixteen male Wistar rats (6 weeks old, average weight 220 ± 10 g) were subjected to an iron-enriched diet containing 2.5% carbonyl iron according to Ackerman et al. for 6 weeks. Another group of eight rats (control group) was subjected to an ordinary pellet diet for the same period. The 16 animals with iron fortified diets were then separated into two groups of eight: the DFX group which received DFX alone and the DFX-CP group which received DFX plus CP, for 6 days. Drugs were given orally through proper mixing with food so that on average, each animal would ingest 30 mg/kg DFX daily incorporated within 15 gm of dried food. For the DFX-CP group, the 15 g dried food contained CP equivalent to 30 mg/kg of animal weight. Blood samples were collected from animals using the orbital venous plexus bleeding method with the aid of ether anesthesia in special EDTA tubes on days 1, 3, and 6 after initiation of the drug treatment. Blood samples were centrifuged, and plasma was collected in Eppendorf tubes and kept at −80°C until time of analysis for DFX. On the sixth day of the treatment, animals were sacrificed by cervical dislocation with the aid of mild anesthesia. Liver, heart, kidney, spleen, and the whole gastrointestinal tract (GIT) of all animals were collected and immediately stored in 10% formalin solution for further assessment.
Accurately weighed samples of the tissues to be determined (90–120 mg for liver, and 50–80 mg for heart and spleen) were digested in 1.5 mL of concentrated H2SO4 at 60°C for two days. Samples were vortex mixed and initially diluted 12 times using 2M HCl and filtered using a 0.45 μm PTFE syringe filters. Further dilutions were made if necessary and as appropriate upon sample measurement. Samples were read on Aurora AI1200 atomic absorption spectrophotometer at the specific wavelength of iron. FeCl3 standard solution 1000 μg/mL (Scharlau, Spain) was used to prepare calibration curve solutions. Proper blank samples were prepared along with the calibration curve of standard iron solution. Linearity was established in the range 0.1–8 µg/mL, with a linearity coefficient > 0.99. A typical calibration equation was […]. For statistical analysis, the potential existence of a significant difference between the averages of two groups, a t-test was employed using GraphPad software.

[5] = test system: iron-overloaded rat model; assay: Histological assessment of organs (H&E and Pearl's stain for iron deposits); type: in vivo, Wistar rats
Protocol: as §2, with “weight.” for “weight. Blood samples were collected from animals using the orbital venous plexus bleeding method with the aid of ether anesthesia in special EDTA tubes on days 1, 3, and 6 after initiation of the drug treatment. Blood samples were centrifuged, and plasma was collected in Eppendorf tubes and kept at −80°C until time of analysis for DFX. On the sixth day of the treatment, animals were sacrificed by cervical dislocation with the aid of mild anesthesia.”

[6] = design: method as in PMID 10508341, doi:10.1002/ejic.200400363; conditions: practically measured; cited from earlier work
[7] = design: method as in PMID 10508341, doi:10.1002/ejic.200400363; conditions: cited from earlier work

Question: For `O=C(O)c1ccc(-n2nc(-c3ccccc3O)nc2-c2ccccc2O)cc1` [DFX, Deferasirox], which solubility at 24 h ([1]; 0.1 M HCl, pH 1.2, pH 1.2 (0.1 M HCl), 37°C) is on record?
Answer: The solubility at 24 h was 9.9 µg/mL (≈ 26.5 µM).

Question: And the solubility at 24 h ([1]; acetate buffer, pH 4.5, pH 4.5 acetate buffer, 37°C)?
Answer: The solubility at 24 h was 19.1 µg/mL (≈ 51.2 µM).

Question: And the Solubility ([1]; pH 6.8 phosphate buffer, 37°C, 24 h)?
Answer: The Solubility was 140.8 (1.9) μg/mL.

Question: And the solubility at 24 h ([1]; phosphate buffer, 37 °C, pH 6.8, aqueous buffer, thermodynamic from solid, pH 6.8 phosphate buffer)?
Answer: Its solubility at 24 h is 140 µg/mL (≈ 375 µM).

Question: And the Apparent partition coefficient ([2]; pH 4.5, 37°C)?
Answer: Its Apparent partition coefficient is 2.1 (5.7).

Question: And the Apparent partition coefficient ([2]; pH 6.8, 37°C)?
Answer: The Apparent partition coefficient was 7.9 (1.11).

Question: And the concentration at 1 day ([3]; 1 day after start of drugs in food (30 mg/kg daily oral))?
Answer: The concentration at 1 day was 1200 ng/mL.

Question: And the concentration at 3 day ([3]; 3 days after start of drugs in food (30 mg/kg daily oral))?
Answer: The concentration at 3 day was 10700 ng/mL.

Question: What about the concentration at 6 day ([3]; 6 days after start of drugs in food (30 mg/kg daily oral)) of the same compound?
Answer: Its concentration at 6 day is 9700 ng/mL.

Question: And the “Content of iron in dried tissue” value ([4]; dried blood, 3 days after initiation of chelation therapy)?
Answer: The value was 4.73 (0.2) mg/100g of tissue.

Question: And the “Content of iron in dried tissue” value ([4]; dried blood, 6 days after initiation of chelation therapy)?
Answer: The value was 4.94 (0.2) mg/100g of tissue.

Question: And the “Content of iron in dried tissue” value ([4]; heart, after 6 days of treatment)?
Answer: The value was 50.3 (2.7) mg/100g of tissue.

Question: And the “Content of iron in dried tissue” value ([4]; liver, after 6 days of treatment)?
Answer: Its value is 162.6 (10.1) mg/100g of tissue.

Question: And the “Content of iron in dried tissue” value ([4]; spleen, after 6 days of treatment)?
Answer: Its value is 168.8 (9.8) mg/100g of tissue.

Question: What about the “Iron deposition in spleen tissue (Pearl's stain)” value ([5]; compared with the combined treatment group and the control group, seen in six out of eight animals) of the same compound?
Answer: The value was “clearly higher levels of deposited iron”.

Question: What about the “Iron deposition in liver tissue (Pearl's stain)” value ([5]; compared with the combined treatment group, seen in six of eight animals) of the same compound?
Answer: Its value is “higher level of iron deposition”.

Question: What about the “Formation constants of DFX to Fe^3+” value [6] of the same compound?
Answer: Its value is 10^37-10^38.

Question: And the “Affinity of DFX to Fe^2+” value [7]?
Answer: The value was “very low affinity”.
